According to ChEMBL document CHEMBL3862022, “Synthesis and biological evaluation of lovastatin-derived aliphatic hydroxamates that induce reactive oxygen species” (Bioorg Med Chem Lett, 2016):
The source made the active and inactive calls. The rule behind the calls is not given here.

Experiments:
[1] = Induction of reactive oxygen species in human MDA-MB-231 cells at 10 uM after 24 hrs by DCFH-DA probe-based flow cytometric method; type: physicochemical, cell-based; conditions: mda-mb-231, 24 h
[2] = Cytotoxicity against human PC3 cells assessed as growth inhibition after 48 hrs by SRB assay; type: functional, cell-based; conditions: PC-3, 48 h
[3] = Cytotoxicity against human MCF7 cells assessed as growth inhibition after 24 to 48 hrs by MTT assay; type: functional, cell-based
[4] = Cytotoxicity against human T47D cells assessed as growth inhibition after 24 to 48 hrs by MTT assay; type: functional, cell-based
[5] = Cytotoxicity against human MDA-MB-231 cells assessed as growth inhibition after 24 to 48 hrs by MTT assay; type: functional, cell-based
[6] = Cytotoxicity against human IMR90 cells assessed as growth inhibition up to 40 uM after 24 to 48 hrs by MTT assay; type: toxicity, cell-based; conditions: imr-90
MDA-MB-231 [7] = assay: Induction of DNA damage in human MDA-MB-231 cells assessed as phosphorylation of gammaH2AX at IC50 to 3 times IC50 after 48 hrs by flow cytometric analysis; type: functional, cell-based
[8] = molecular target: T1, Serine/threonine-protein kinase Chk1 (Homo sapiens) (UniProt O14757); assay: Induction of CHK1 phosphorylation in human MDA-MB-231 cells at 10 uM after 6 to 24 hrs by Western blot method; type: cell-based
T1 sequence (whole entry): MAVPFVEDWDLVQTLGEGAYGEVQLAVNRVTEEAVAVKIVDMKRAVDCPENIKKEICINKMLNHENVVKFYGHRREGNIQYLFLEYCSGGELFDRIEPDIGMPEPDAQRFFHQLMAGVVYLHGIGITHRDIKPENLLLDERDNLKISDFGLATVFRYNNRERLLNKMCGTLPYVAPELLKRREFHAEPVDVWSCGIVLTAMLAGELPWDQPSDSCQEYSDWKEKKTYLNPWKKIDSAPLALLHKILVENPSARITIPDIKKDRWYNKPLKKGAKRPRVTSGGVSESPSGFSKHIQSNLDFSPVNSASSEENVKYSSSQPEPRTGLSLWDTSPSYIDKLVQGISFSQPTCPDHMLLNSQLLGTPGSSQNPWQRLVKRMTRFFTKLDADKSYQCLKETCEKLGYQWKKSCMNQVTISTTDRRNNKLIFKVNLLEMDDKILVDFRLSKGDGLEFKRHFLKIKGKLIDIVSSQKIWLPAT

[9] = molecular target: Serine/threonine-protein kinase Chk2 (Homo sapiens) (UniProt O96017); assay: Induction of CHK2 phosphorylation in human MDA-MB-231 cells at 10 uM after 6 to 24 hrs by Western blot method; type: cell-based
Chain of Serine/threonine-protein kinase Chk2 (Homo sapiens) (O96017 whole entry): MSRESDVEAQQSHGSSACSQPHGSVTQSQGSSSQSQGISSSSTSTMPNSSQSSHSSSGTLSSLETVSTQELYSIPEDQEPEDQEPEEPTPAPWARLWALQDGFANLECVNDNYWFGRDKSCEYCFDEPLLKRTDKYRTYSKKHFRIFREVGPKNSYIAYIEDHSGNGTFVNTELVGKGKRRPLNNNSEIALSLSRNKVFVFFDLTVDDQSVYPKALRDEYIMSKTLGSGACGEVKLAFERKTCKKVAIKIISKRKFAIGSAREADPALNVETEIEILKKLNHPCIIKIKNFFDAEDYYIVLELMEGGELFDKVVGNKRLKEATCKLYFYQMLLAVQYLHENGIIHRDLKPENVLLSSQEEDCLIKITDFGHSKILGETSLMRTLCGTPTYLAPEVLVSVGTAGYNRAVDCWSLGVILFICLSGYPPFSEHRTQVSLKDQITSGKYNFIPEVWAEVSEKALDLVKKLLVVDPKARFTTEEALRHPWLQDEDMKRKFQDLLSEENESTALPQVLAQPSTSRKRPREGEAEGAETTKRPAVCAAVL

[10] = molecular target: Serine-protein kinase ATM (Homo sapiens) (UniProt Q13315); assay: Induction of ATM phosphorylation in human MDA-MB-231 cells at 10 uM after 6 to 24 hrs by Western blot method; type: cell-based
Chain of Serine-protein kinase ATM (Homo sapiens) (Q13315 whole entry): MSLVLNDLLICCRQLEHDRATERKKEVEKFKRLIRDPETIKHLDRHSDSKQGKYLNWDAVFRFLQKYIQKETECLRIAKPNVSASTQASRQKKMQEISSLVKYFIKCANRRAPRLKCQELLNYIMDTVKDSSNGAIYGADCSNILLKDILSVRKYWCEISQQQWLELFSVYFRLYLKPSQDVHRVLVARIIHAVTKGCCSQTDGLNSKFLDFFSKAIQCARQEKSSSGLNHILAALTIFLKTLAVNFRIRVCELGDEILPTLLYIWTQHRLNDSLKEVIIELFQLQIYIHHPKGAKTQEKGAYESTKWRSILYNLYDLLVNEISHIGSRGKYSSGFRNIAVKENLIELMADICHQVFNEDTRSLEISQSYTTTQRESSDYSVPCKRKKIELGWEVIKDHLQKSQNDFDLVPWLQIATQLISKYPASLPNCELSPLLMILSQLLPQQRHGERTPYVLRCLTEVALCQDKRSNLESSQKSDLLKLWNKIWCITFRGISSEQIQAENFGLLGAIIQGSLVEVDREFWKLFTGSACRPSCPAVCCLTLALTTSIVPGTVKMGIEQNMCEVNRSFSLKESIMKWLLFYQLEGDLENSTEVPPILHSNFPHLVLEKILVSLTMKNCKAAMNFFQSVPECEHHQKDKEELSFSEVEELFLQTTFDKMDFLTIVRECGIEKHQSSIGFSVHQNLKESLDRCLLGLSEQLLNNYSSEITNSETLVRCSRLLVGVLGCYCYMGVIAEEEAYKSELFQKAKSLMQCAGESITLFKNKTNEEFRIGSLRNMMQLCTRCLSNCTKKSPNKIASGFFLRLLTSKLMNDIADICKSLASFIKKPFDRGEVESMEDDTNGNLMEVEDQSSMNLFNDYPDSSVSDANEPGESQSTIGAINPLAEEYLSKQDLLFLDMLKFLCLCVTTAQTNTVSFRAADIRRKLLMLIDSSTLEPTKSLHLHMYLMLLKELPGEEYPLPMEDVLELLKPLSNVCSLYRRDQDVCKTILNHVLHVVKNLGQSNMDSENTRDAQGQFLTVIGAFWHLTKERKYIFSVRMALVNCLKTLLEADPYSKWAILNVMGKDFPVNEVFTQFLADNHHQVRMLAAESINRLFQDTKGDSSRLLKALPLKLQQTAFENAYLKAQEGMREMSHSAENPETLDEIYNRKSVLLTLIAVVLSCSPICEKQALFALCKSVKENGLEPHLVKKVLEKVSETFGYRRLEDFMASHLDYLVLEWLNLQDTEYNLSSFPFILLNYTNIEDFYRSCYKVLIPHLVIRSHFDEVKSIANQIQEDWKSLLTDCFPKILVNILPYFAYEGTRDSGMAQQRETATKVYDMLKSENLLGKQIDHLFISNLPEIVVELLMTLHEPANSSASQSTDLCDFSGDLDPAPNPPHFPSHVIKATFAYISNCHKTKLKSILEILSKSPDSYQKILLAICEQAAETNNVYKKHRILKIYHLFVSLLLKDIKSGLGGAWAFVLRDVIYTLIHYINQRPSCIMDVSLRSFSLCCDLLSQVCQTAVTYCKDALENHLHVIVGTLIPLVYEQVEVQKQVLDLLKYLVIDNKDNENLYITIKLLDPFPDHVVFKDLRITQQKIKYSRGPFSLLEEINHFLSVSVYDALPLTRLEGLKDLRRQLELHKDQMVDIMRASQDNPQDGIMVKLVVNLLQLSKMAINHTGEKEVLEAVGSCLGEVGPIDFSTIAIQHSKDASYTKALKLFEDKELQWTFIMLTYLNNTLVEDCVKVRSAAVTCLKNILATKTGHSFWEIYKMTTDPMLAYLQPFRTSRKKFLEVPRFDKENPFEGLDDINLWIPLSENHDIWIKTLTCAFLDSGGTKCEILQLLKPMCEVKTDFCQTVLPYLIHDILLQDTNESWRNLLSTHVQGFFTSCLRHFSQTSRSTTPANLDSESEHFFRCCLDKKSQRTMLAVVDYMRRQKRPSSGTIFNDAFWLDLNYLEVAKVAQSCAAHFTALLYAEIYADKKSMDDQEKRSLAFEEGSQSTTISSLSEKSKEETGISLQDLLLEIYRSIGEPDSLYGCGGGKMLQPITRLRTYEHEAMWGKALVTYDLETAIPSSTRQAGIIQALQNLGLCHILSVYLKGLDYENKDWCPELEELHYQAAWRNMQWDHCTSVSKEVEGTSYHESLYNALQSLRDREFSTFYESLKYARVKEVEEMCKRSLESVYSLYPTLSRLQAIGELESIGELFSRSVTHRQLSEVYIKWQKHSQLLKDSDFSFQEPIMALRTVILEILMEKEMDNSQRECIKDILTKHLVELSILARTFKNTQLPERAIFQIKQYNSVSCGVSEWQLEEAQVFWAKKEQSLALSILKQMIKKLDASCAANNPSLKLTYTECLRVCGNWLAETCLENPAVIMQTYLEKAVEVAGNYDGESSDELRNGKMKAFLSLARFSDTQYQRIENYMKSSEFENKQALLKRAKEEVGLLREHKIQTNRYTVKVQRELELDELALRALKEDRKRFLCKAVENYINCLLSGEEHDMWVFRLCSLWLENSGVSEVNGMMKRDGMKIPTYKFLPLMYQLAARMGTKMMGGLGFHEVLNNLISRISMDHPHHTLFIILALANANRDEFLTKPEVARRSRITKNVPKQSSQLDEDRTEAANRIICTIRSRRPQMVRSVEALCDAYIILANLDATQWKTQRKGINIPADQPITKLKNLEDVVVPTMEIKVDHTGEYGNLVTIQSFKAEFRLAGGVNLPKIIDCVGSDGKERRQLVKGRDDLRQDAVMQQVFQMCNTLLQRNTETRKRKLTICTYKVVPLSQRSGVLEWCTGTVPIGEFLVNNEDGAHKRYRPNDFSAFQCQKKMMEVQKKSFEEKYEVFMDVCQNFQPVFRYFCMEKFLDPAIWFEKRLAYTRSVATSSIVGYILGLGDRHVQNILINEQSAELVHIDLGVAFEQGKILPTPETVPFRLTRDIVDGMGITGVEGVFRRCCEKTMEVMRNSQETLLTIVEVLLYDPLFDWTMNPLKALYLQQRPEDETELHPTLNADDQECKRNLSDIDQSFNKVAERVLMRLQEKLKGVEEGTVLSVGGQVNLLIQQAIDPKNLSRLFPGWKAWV

[11] = molecular target: T2, Serine/threonine-protein kinase Chk1/2 (Homo sapiens) (UniProt O96017+O14757); assay: Induction of CHK1/2 phosphorylation in human MDA-MB-231 cells assessed as increase in p53 phosphorylation at 10 uM after 6 to 24 hrs by Western blot method; type: cell-based
T2 sequence (O96017 whole entry, looked up, one chain of several): as the sequence (O96017 whole entry) above

[12] = molecular target: T2, Serine/threonine-protein kinase Chk1/2 (Homo sapiens); assay: Induction of CHK1/2 phosphorylation in human MDA-MB-231 cells assessed as increase in p21 protein expression at 10 uM after 6 to 24 hrs by Western blot method; type: cell-based
MDA-MB-231 [13] = assay: Binding affinity to DNA minor groove in human MDA-MB-231 cells up to 100 uM after 20 mins by Hoechst 33342 staining-based fluorometric method; type: cell-based
MDA-MB-231 [14] = assay: Induction of apoptosis in human MDA-MB-231 cells assessed as PARP cleavage by flow cytometric method; type: functional, cell-based
[15] = Cell cycle arrest in human MDA-MB-231 cells assessed as accumulation at S phase at 32 uM after 6 to 12 hrs by propidium iodide staining-based flow cytometric method; type: functional
[16] = Induction of reactive oxygen species in human MDA-MB-231 cells at 30 uM after 24 hrs by DCFH-DA probe-based flow cytometric method; type: physicochemical, cell-based; conditions: mda-mb-231, 24 h

SMILES | Activity [1] | IC50 [2] | other results
CC[C@H](C)C(=O)O[C@H]1C[C@@H](C)C=C2C=C[C@H](C)[C@H](CC[C@@H](O)C[C@@H](CC(=O)NO)OC(=O)c3ccc4ccccc4c3)[C@H]21 | Active | 17.3 µM | 
CC[C@H](C)C(=O)O[C@H]1C[C@@H](C)C=C2C=C[C@H](C)[C@H](CC[C@@H](O)C[C@@H](CC(=O)NO)OC(=O)Cc3ccccc3)[C@H]21 | Active | 5.8 µM | 
CC[C@H](C)C(=O)O[C@H]1C[C@@H](C)C=C2C=C[C@H](C)[C@H](CC[C@@H](O)C[C@@H](CC(=O)NO)OC(=O)c3ccc([N+](=O)[O-])cc3)[C@H]21 | Active | 8.2 µM | 
CC[C@H](C)C(=O)O[C@H]1C[C@@H](C)C=C2C=C[C@H](C)[C@H](CC[C@@H](O)C[C@@H](CC(=O)NO)OC(=O)C(C)(C)C)[C@H]21 | Active | 7.2 µM | 
CC[C@H](C)C(=O)O[C@H]1C[C@@H](C)C=C2C=C[C@H](C)[C@H](CC[C@@H](O)C[C@@H](CC(=O)NO)OC(=O)CCc3ccccc3)[C@H]21 | Active | 6.2 µM | 
CC[C@H](C)C(=O)O[C@H]1C[C@@H](C)C=C2C=C[C@H](C)[C@H](CC[C@@H](O)C[C@@H](CC(=O)NO)OC(=O)c3ccccc3)[C@H]21 | Active | 3.3 µM | IC50 [3]: 30 to 40 µM; IC50 [4]: 30 to 40 µM; IC50 [5]: 30 to 40 µM; Activity [6]: Non-Toxic; Activity (MDA-MB-231 [7]): Active; Activity [8]: Active; Activity [9]: Active; Activity [10]: Active; Activity [11]: Active; Activity [12]: Active; Activity (MDA-MB-231 [13]): Active; Activity (MDA-MB-231 [14]): Dose-dependent effect; Activity [15]: Active
CC[C@H](C)C(=O)O[C@H]1C[C@@H](C)C=C2C=C[C@H](C)[C@H](CC[C@@H]3C[C@@H](O)CC(=O)O3)[C@H]21 [LOVASTATIN] |  | 5.4 µM | Activity [16]: Active; IC50 [3]: > 40 µM; IC50 [4]: > 40 µM; IC50 [5]: > 40 µM; Activity [10]: Active; Activity [11]: Active
C[C@H]1C=C2C=C[C@H](C)[C@H](CC[C@@H](O)C[C@H](O)CC(=O)NO)[C@H]2[C@@H](O)C1 | Active | > 30 µM | 
CC[C@H](C)C(=O)O[C@H]1C[C@@H](C)C=C2C=C[C@H](C)[C@H](CC[C@@H](O)C[C@@H](CC(=O)NO)OC(=O)c3ccc(OC(F)(F)F)cc3)[C@H]21 | Active | 20.3 µM | 
CC[C@H](C)C(=O)O[C@H]1C[C@@H](C)C=C2C=C[C@H](C)[C@H](CC[C@@H](O)C[C@@H](CC(=O)NO)OC(=O)c3ccc(Cl)cc3)[C@H]21 | Active | 21.7 µM | 
CC[C@H](C)C(=O)O[C@H]1C[C@@H](C)C=C2C=C[C@H](C)[C@H](CC[C@@H](O)C[C@@H](CC(=O)NO)OC(C)=O)[C@H]21 | Active | 11.4 µM | 
